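Following 48 hours of exposure in 96-well plates, responses at five concentrations were used to interpolate endpoints linearly. TGI: concentration producing complete growth inhibition.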
Legend:
Assay in all cases: NCI tumour cell line growth inhibition, 48 h
COLO 205 colon = system: COLO 205 colon
SF-268 CNS = system: SF-268 CNS
HL-60(TB) leukemia = system: HL-60(TB) leukemia
RPMI-8226 leukemia = system: RPMI-8226 leukemia
SR leukemia = system: SR leukemia
UO-31 renal = system: UO-31 renal
786-0 renal = system: 786-0 renal
OVCAR-4 ovarian = system: OVCAR-4 ovarian
CAKI-1 renal = system: CAKI-1 renal
SF-539 CNS = system: SF-539 CNS
TK-10 renal = system: TK-10 renal
EKVX NSCLC = system: EKVX NSCLC
CCRF-CEM leukemia = system: CCRF-CEM leukemia
A498 renal = system: A498 renal
NCI-H460 lung = system: NCI-H460 lung
RXF 393 renal = system: RXF 393 renal
SNB-78 CNS = system: SNB-78 CNS
OVCAR-3 ovarian = system: OVCAR-3 ovarian
M14 melanoma = system: M14 melanoma
KM20L2 colon = system: KM20L2 colon
OVCAR-8 ovarian = system: OVCAR-8 ovarian
SF-295 CNS = system: SF-295 CNS
SN12C renal = system: SN12C renal
HOP-62 NSCLC = system: HOP-62 NSCLC
HOP-92 NSCLC = system: HOP-92 NSCLC
HOP-18 NSCLC = system: HOP-18 NSCLC
DLD-1 colon = system: DLD-1 colon
SK-MEL-28 melanoma = system: SK-MEL-28 melanoma
MALME-3M melanoma = system: MALME-3M melanoma
HCT-116 colon = system: HCT-116 colon
HCT-15 colon = system: HCT-15 colon
SK-MEL-5 melanoma = system: SK-MEL-5 melanoma
A549 NSCLC = system: A549 NSCLC
IGROV1 ovarian = system: IGROV1 ovarian
SK-OV-3 ovarian = system: SK-OV-3 ovarian
LOX IMVI melanoma = system: LOX IMVI melanoma
ACHN renal = system: ACHN renal
DMS 273 small cell lung = system: DMS 273 small cell lung
SW-620 colon = system: SW-620 colon
RXF-631 renal = system: RXF-631 renal
U251 CNS = system: U251 CNS
UACC-257 melanoma = system: UACC-257 melanoma
LXFL 529 NSCLC = system: LXFL 529 NSCLC
KM12 colon = system: KM12 colon
HT29 colon = system: HT29 colon
OVCAR-5 ovarian = system: OVCAR-5 ovarian
MOLT-4 leukemia = system: MOLT-4 leukemia
HCC-2998 colon = system: HCC-2998 colon
M19-MEL melanoma = system: M19-MEL melanoma
NCI-H226 lung = system: NCI-H226 lung
SNB-19 CNS = system: SNB-19 CNS
SNB-75 CNS = system: SNB-75 CNS
UACC-62 melanoma = system: UACC-62 melanoma
NCI-H522 lung = system: NCI-H522 lung
SK-MEL-2 melanoma = system: SK-MEL-2 melanoma
NCI-H23 lung = system: NCI-H23 lung
K-562 leukemia = system: K-562 leukemia
DMS 114 small cell lung = system: DMS 114 small cell lung

Measured: TGI

Cc1cc(C(C)C)cc(O)c(=O)c1
> 100 µM: COLO 205 colon | SF-268 CNS | HL-60(TB) leukemia | RPMI-8226 leukemia | SR leukemia | UO-31 renal | 786-0 renal | OVCAR-4 ovarian | CAKI-1 renal | SF-539 CNS | TK-10 renal | EKVX NSCLC | CCRF-CEM leukemia | A498 renal | NCI-H460 lung | RXF 393 renal | SNB-78 CNS | OVCAR-3 ovarian | M14 melanoma | KM20L2 colon | OVCAR-8 ovarian | SF-295 CNS | SN12C renal | HOP-62 NSCLC | HOP-92 NSCLC | HOP-18 NSCLC | DLD-1 colon | SK-MEL-28 melanoma | MALME-3M melanoma | HCT-116 colon | HCT-15 colon | SK-MEL-5 melanoma | A549 NSCLC | IGROV1 ovarian | SK-OV-3 ovarian | LOX IMVI melanoma | ACHN renal | DMS 273 small cell lung | SW-620 colon | RXF-631 renal | U251 CNS | UACC-257 melanoma | LXFL 529 NSCLC | KM12 colon | HT29 colon | OVCAR-5 ovarian | MOLT-4 leukemia | HCC-2998 colon | M19-MEL melanoma | NCI-H226 lung | SNB-19 CNS | SNB-75 CNS | UACC-62 melanoma | NCI-H522 lung

CN/N=C(\C)c1c(O)cc(C)oc1=O
> 100 µM: SF-268 CNS | HL-60(TB) leukemia | SK-MEL-2 melanoma | SR leukemia | UO-31 renal | 786-0 renal | OVCAR-4 ovarian | CAKI-1 renal | SF-539 CNS | NCI-H23 lung | TK-10 renal | EKVX NSCLC | CCRF-CEM leukemia | A498 renal | NCI-H460 lung | M14 melanoma | KM20L2 colon | OVCAR-8 ovarian | SF-295 CNS | SN12C renal | HOP-62 NSCLC | HOP-92 NSCLC | HOP-18 NSCLC | DLD-1 colon | SK-MEL-28 melanoma | MALME-3M melanoma | HCT-116 colon | HCT-15 colon | A549 NSCLC | SK-OV-3 ovarian | LOX IMVI melanoma | ACHN renal | SW-620 colon | K-562 leukemia | RXF-631 renal | U251 CNS | UACC-257 melanoma | LXFL 529 NSCLC | KM12 colon | HT29 colon | MOLT-4 leukemia | HCC-2998 colon | M19-MEL melanoma | NCI-H226 lung | SNB-19 CNS | SNB-75 CNS | UACC-62 melanoma | NCI-H522 lung

COc1nc(NC2OCC(OC(C)=O)C(OC(C)=O)C2OC(C)=O)c(-c2csc(N)n2)c(=O)n1C (stereo unspecified)
> 100 µM: COLO 205 colon | SF-268 CNS | HL-60(TB) leukemia | SK-MEL-2 melanoma | RPMI-8226 leukemia | SR leukemia | UO-31 renal | 786-0 renal | OVCAR-4 ovarian | CAKI-1 renal | SF-539 CNS | NCI-H23 lung | TK-10 renal | CCRF-CEM leukemia | A498 renal | NCI-H460 lung | SNB-78 CNS | OVCAR-3 ovarian | M14 melanoma | KM20L2 colon | OVCAR-8 ovarian | SF-295 CNS | SN12C renal | HOP-62 NSCLC | HOP-92 NSCLC | HOP-18 NSCLC | DLD-1 colon | SK-MEL-28 melanoma | MALME-3M melanoma | HCT-116 colon | DMS 114 small cell lung | HCT-15 colon | SK-MEL-5 melanoma | A549 NSCLC | IGROV1 ovarian | SK-OV-3 ovarian | LOX IMVI melanoma | ACHN renal | SW-620 colon | K-562 leukemia | RXF-631 renal | U251 CNS | UACC-257 melanoma | LXFL 529 NSCLC | KM12 colon | HT29 colon | OVCAR-5 ovarian | MOLT-4 leukemia | M19-MEL melanoma | NCI-H226 lung | SNB-19 CNS | SNB-75 CNS | UACC-62 melanoma | NCI-H522 lung
